Results as given in patent US8680275B2, “Fused heterocyclic compounds as orexin receptor modulators” (Janssen Pharmaceutica NV, priority 2009, dated 2014).
pKi: −log10 of the molar value.

Tests used:
human orexin 1 receptor = human orexin 1 receptor (Homo sapiens (Human), UniProt O43613); experiment: Human orexin 1 receptor radioligand binding ([3H]-SB674042 competition); conditions: CHO cells stably expressing human orexin 1 receptor; [3H]-SB674042 4 nM final; read-out: OR-1 Ki
Experimental: (§1) The in vitro affinity of the compounds for the human orexin-1 and orexin-2 receptors was determined by competitive radioligand binding using [^3H]SB SB674042 (1-(5-(2-fluoro-phenyl)-2-methyl-thiazol-4-yl)-1-((S)-2-(5-phenyl-(1,3,4)oxadiazol-2-ylmethyl)-pyrrolidin-1-yl)methanone) (Langmead et al., British Journal of Pharmacology 2004, 141:340-346.) and [^3H]EMPA (N-ethyl-2[(6-methoxy-pyridin-3-yl)-(toluene-2-sulfonyl)-amino]-N-pyridin-3-ylmethyl acetamide) (Malherbe et al., British Journal of Pharmacology, 2009, 156(8), 1326-1341), respectively.
Human Orexin 1 Receptor Radioligand Binding Studies
Chinese ovary cells (CHO) stably expressing human orexin 1 receptor (Genebank accession number NM_001526) were grown to confluency in DMEM/F12 (Gibco, Cat #11039), 10% FBS, 1× Pen/Strep, 600 μg/mL G418 media on 150 cm^2 tissue culture plates, washed with 5 mM EDTA in PBS (HyClone Dulbecco's Phoshpate Buffered Saline 1× with Calcium and Magnesium, Cat #SH30264.01, hereafter referred to simply as PBS) and scraped into 50 ml tubes. After centrifugation (2K xG, 10 min at 4° C.), the supernatant was aspirated and the pellets frozen and stored at −80° C. Cells were resuspended in PBS in the presence of 1 tablet of protease inhibitor cocktail (Roche, Cat. #11836145001) per 50 mL. […] Compounds were solubilized in 100% DMSO (Acros Organics, Cat. #61042-1000) and tested over a range of 7 concentrations (from 0.1 nM to 10 μM). The final concentration of DMSO in the reactions is equal to or less than 0.1%. Total and nonspecific binding was determined in the absence and presence of 10 μM (1-(6,8-difluoro-2-methylquinolin-4-yl)-3-[4-(dimethylamino)phenyl]urea, CAS Registry #288150-92-5). The total volume of each reaction is 200 μL (20 μL of diluted compounds, 80 μL of [^3H]-SB674042 diluted in PBS and 100 μL of the cell suspension). Reactions were run for 60 min at room temperature and terminated by filtration through GF/C filter plates (PerkinElmer, Cat. #6005174) presoaked in 0.3% polyethylenimine using the cell harvester (PerkinElmer Filtermate). The plates were washed 3 times by aspirating 30 ml PBS through the plates. Plates were dried in 55° C. oven for 60 min, scintillation fluid was added, and the radioactivity was counted on a Topcount (Packard).

human orexin-2 receptor = human orexin-2 receptor (Homo sapiens (Human), UniProt O43614); experiment: Human orexin 2 receptor radioligand binding ([3H]-EMPA competition); conditions: HEK293 cells stably expressing human orexin-2 receptor; [3H]-EMPA 5 nM final; read-out: OR-2 Ki
Experimental: as §1
Human Orexin 2 Receptor Radioligand Binding Studies
HEK293 stably expressing human orexin-2 receptor (Genebank accession number NM_001526) were grown to confluency in DMEM/F12 (Gibco, Cat #11039), in DMEM, 10% FBS, 1× Pen/Strep, 1× NaPyruvate, 1×HEPES, 600 ug/ml G418 media on 150 cm^2 tissue culture plates, washed with 5 mM EDTA in PBS (HyClone Dulbecco's Phosphate Buffered Saline 1× with Calcium and Magnesium, Cat #SH30264.01, hereafter referred to simply as PBS) and scraped into 50 ml tubes. After centrifugation (2K xG, 10 min at 4° C.), the supernatant was aspirated and the pellets frozen and stored at −80° C. Cells were resuspended in PBS in the presence of 1 tablet of protease inhibitor cocktail (Roche, Cat. #11836145001) per 50 mL. […] Competition binding experiments in 96 well polypropylene plates were performed using [^3H]-EMPA (Moravek Corporation, specific activity=27 Ci/mmol), diluted to a […] concentration in PBS (5 nM final concentration). Compounds were solubilized in 100% DMSO (Acros Organics, Cat. #61042-1000) and tested over a range of 7 concentrations (from 0.1 nM to 10 μM). The final concentration of DMSO in the reactions is equal to or less than 0.1%. Total and nonspecific binding was determined in the absence and presence of 10 μM (N-[2-(3,4-dimethoxyphenyl)ethyl]-N-methylnaphthalene-1-carboxamide, CAS Registry #1089563-88-1). The total volume of each reaction is 200 μL (20 μL of diluted compounds, 80 μL of [^3H]-EMPA diluted in PBS and 100 μL of the cell suspension). Reactions were run for 60 min at room temperature and terminated by filtration through GF/C filter plates (PerkinElmer, Cat. #6005174) presoaked in 0.3% polyethylenimine using the cell harvester (Perkin Elmer Filtermate). The plates were washed 3 times by aspirating 30 ml PBS through the plates. Plates were dried in 55° C. oven for 60 min, scintillation fluid was added, and the radioactivity was counted on a Topcount (Packard).

Sequence of human orexin 1 receptor (O43613 whole entry): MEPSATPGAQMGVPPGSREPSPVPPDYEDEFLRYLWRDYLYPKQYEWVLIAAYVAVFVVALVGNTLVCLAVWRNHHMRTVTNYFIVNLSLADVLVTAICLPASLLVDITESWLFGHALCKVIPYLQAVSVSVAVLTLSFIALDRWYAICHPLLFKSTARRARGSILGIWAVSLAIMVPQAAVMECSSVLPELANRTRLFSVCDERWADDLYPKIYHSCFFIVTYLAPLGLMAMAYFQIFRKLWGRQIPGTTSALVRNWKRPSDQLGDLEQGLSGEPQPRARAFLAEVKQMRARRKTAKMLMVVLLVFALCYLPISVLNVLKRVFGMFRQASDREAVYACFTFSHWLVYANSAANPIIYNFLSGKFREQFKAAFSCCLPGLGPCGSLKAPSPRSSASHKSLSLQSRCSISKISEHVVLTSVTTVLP
Sequence of human orexin-2 receptor (O43614 whole entry): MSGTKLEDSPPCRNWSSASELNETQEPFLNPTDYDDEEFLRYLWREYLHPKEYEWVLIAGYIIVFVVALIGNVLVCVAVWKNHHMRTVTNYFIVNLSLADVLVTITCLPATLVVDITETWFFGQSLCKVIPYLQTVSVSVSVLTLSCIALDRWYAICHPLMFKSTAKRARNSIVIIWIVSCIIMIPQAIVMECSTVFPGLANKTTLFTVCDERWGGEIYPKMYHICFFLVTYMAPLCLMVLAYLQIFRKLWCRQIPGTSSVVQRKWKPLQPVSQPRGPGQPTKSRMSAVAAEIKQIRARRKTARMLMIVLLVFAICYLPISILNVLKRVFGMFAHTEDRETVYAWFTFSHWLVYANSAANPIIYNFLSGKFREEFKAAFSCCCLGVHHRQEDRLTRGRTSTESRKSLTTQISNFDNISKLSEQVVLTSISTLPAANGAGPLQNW

Compound | pKi (human orexin 1 receptor) | pKi (human orexin-2 receptor)
COc1cccc(OC)c1C(=O)N1CCC2CN(c3cnc4ccccc4n3)C2C1 (stereo not shown) [Example 12, (2,6-Dimethoxy-phenyl)-(8-quinoxalin-2-yl-3,8-diaza-bicyclo[4.2.0]oct-3-yl)-methanone] | 6.18 | 6.68
O=C(c1ccccc1Br)N1CC[C@H]2CN(c3cnc4ccccc4n3)[C@H]2C1 [Example 13, (1R,6S)(2-Bromo-phenyl)-(8-quinoxalin-2-yl-3,8-diaza-bicyclo[4.2.0]oct-3-yl)-methanone] | 7.11 | 6.84
O=C(c1ccccc1-c1cccnc1)N1CC[C@H]2CN(c3cnc4ccccc4n3)[C@H]2C1 [Example 14, (1R,6S)(2-Pyridin-3-yl-phenyl)-(8-quinoxalin-2-yl-3,8-diaza-bicyclo[4.2.0]oct-3-yl)-methanone] | 7.02 | 6.94
COc1cccc(OC)c1C(=O)N1CCC2CN(c3nccc(-c4ccccc4)n3)C2C1 (stereo not shown) [Example 15, (2,6-Dimethoxy-phenyl)-[8-(4-phenyl-pyrimidin-2-yl)-3,8-diaza-bicyclo[4.2.0]oct-3-yl]-methanone] | 6.63 | 6.59
COc1cccc(OC)c1C(=O)N1CCC2CN(c3nc4ccccc4o3)C2C1 (stereo not shown) [Example 16, (8-Benzooxazol-2-yl-3,8-diaza-bicyclo[4.2.0]oct-3-yl)-(2,6-dimethoxy-phenyl)-methanone] | 6.34 | 6.55
Cc1cc(C)nc(N2C[C@H]3CCN(C(=O)c4ccccc4-c4ccccc4)C[C@H]32)n1 [Example 18, (1S,6R)Biphenyl-2-yl-[8-(4,6-dimethyl-pyrimidin-2-yl)-3,8-diaza-bicyclo[4.2.0]oct-3-yl]-methanone] | 5.42 | 6.12
Cc1ccc(C)c(S(=O)(=O)N2CCC3CN(c4nccc(-c5ccccc5)n4)C3C2)c1 (stereo not shown) [Example 19, 3-(2,5-Dimethyl-benzenesulfonyl)-8-(4-phenyl-pyrimidin-2-yl)-3,8-diaza-bicyclo[4.2.0]octane] | 6.60 | 5.97
Cc1ccc(S(=O)(=O)N2CC[C@H]3CN(c4cnc5ccccc5n4)[C@H]3C2)c(C)c1 [Example 20, (1R,6S)2-[3-(2,4-Dimethyl-benzenesulfonyl)-3,8-diaza-bicyclo[4.2.0]oct-8-yl]-quinoxaline] | 6.42 | 5.68
Cc1ccc(C)c(S(=O)(=O)N2CCC3CN(c4cnc5ccccc5n4)C3C2)c1 (stereo not shown) [Example 21, 2-[3-(2,5-Dimethyl-benzenesulfonyl)-3,8-diaza-bicyclo[4.2.0]oct-8-yl]-quinoxaline] | 5.92 | 5.42
Cc1cc(C)nc(N2C[C@@H]3CCN(C(=O)c4c(F)cccc4-c4ncccn4)C[C@@H]32)n1 [Example 22, (1R,6S)[8-(4,6-Dimethyl-pyrimidin-2-yl)-3,8-diaza-bicyclo[4.2.0]oct-3-yl]-(2-fluoro-6-pyrimidin-2-yl-phenyl)-methanone] | 6.33 | 7.54
Cc1cc(C)nc(N2C[C@@H]3CCN(C(=O)c4cc(F)ccc4-c4ncccn4)C[C@@H]32)n1 [Example 23, (1R,6S)[8-(4,6-Dimethyl-pyrimidin-2-yl)-3,8-diaza-bicyclo[4.2.0]oct-3-yl]-(5-fluoro-2-pyrimidin-2-yl-phenyl)-methanone] | 6.21 | 7.70
Cc1ccc(-n2nccn2)c(C(=O)N2CC[C@H]3CN(c4nc(C)cc(C)n4)[C@H]3C2)c1 [Example 26, (1R,6S)-[8-(4,6-Dimethyl-pyrimidin-2-yl)-3,8-diaza-bicyclo[4.2.0]oct-3-yl]-(5-methyl-2-[1,2,3]triazol-2-yl-phenyl)-methanone] | 7.28 | 7.89
Cc1ccc(-c2ncccn2)c(C(=O)N2CC[C@H]3CN(c4nc(C)cc(C)n4)[C@H]3C2)c1 [Example 27, (1R,6S)-[8-(4,6-Dimethyl-pyrimidin-2-yl)-3,8-diaza-bicyclo[4.2.0]oct-3-yl]-(5-methyl-2-pyrimidin-2-yl-phenyl)-methanone] | 6.84 | 7.55
Cc1cc(C)nc(N2C[C@@H]3CCN(C(=O)c4ccccc4-c4ncccn4)C[C@@H]32)n1 [Example 28, (1R,6S)-[8-(4,6-Dimethyl-pyrimidin-2-yl)-3,8-diaza-bicyclo[4.2.0]oct-3-yl]-(2-pyrimidin-2-yl-phenyl)-methanone] | 6.48 | 7.68
Cc1cc(C)nc(N2C[C@@H]3CCN(C(=O)c4c(F)cccc4-n4nccn4)C[C@@H]32)n1 [Example 29, (1R,6S)-[8-(4,6-Dimethyl-pyrimidin-2-yl)-3,8-diaza-bicyclo[4.2.0]oct-3-yl]-(2-fluoro-6-[1,2,3]triazol-2-yl-phenyl)-methanone] | 6.49 | 7.96
Cc1cc(C)nc(N2C[C@@H]3CCN(C(=O)c4ccc(F)cc4-n4nccn4)C[C@@H]32)n1 [Example 30, (1R,6S)-[8-(4,6-Dimethyl-pyrimidin-2-yl)-3,8-diaza-bicyclo[4.2.0]oct-3-yl]-(4-fluoro-2-[1,2,3]triazol-2-yl-phenyl)-methanone] | 6.01 | 7.89
Cc1cnc(C)c(N2C[C@@H]3CCN(C(=O)c4ccc(F)cc4-n4nccn4)C[C@@H]32)n1 [Example 31, (1R,6S)-[8-(3,6-Dimethyl-pyrazin-2-yl)-3,8-diaza-bicyclo[4.2.0]oct-3-yl]-(4-fluoro-2-[1,2,3]triazol-2-yl-phenyl)-methanone] | ≤ 5.00 | 7.09
Cc1cc(N2C[C@@H]3CCN(C(=O)c4c(F)cccc4-n4nccn4)C[C@@H]32)nc(C(F)(F)F)n1 [Example 32, (1R,6S)-(2-Fluoro-6-[1,2,3]triazol-2-yl-phenyl)-[8-(6-methyl-2-trifluoromethyl-pyrimidin-4-yl)-3,8-diaza-bicyclo[4.2.0]oct-3-yl]-methanone] | 6.87 | 7.89
Cc1cc(N2C[C@@H]3CCN(C(=O)c4ccc(F)cc4-n4nccn4)C[C@@H]32)nc(C(F)(F)F)n1 [Example 34, (1R,6S)-(4-Fluoro-2-[1,2,3]triazol-2-yl-phenyl)-[8-(6-methyl-2-trifluoromethyl-pyrimidin-4-yl)-3,8-diaza-bicyclo[4.2.0]oct-3-yl]-methanone] | 5.98 | 7.30
Cc1cc(N2C[C@@H]3CCN(C(=O)c4ccccc4-n4nccn4)C[C@@H]32)nc(C(F)(F)F)n1 [Example 35, (1R,6S)-[8-(6-Methyl-2-trifluoromethyl-pyrimidin-4-yl)-3,8-diaza-bicyclo[4.2.0]oct-3-yl]-(2-[1,2,3]triazol-2-yl-phenyl)-methanone] | 6.93 | 7.62
